How the values were obtained:
[1] = test period when patient only was taking Zoloft (two months)
Text: Test objectives; improve cardiovascular and diabetes symptoms through an increased well-being from improved adherence to Zoloft, initiating primarily an improved level of physical activity • b. Follow-up variables: Weight and HbA1c • c. Period of time using the combination product: Five months. • d. Period of time using only the pharmaceutical, i.e. no combination product, prior to the period of using the combination product: Two months • e. Period of time using only the software application, after the period of using the combination product: Two weeks
The individual goal was set-up by the patient by answering the following question: “Give your own personal goal for the physical activity in number of minutes for one week”. • The patient was then asked to continuously answer a question like the following: “I have been exercising the following number of minutes today: [number]”. • Weight/BMI: • The patient was asked to answer a question regarding his/her actual weight. • Depression and Anxiety, respectively: • The patient was asked to register the actual level of perceived depression respectively actual level of perceived anxiety at predefined occasions every second day. It was also possible for the patient to answer the question when he/she wanted. […]

[2] = test period when patient was only taking Metformin (two months)
Procedure: Follow-up variables: HbA1c • c. Period of time using the combination product: Three months. • d. Period of time using only the pharmaceutical, i.e. no combination product, prior to the period of using the combination product: Two months
Metformin was the following: • Adherence to Metformin: • The patient was asked to answer a question whether or not he/she had been adherent to Metformin, and which dose the patient took; “I have taken my Metformin today with the daily dose of 500 mg/1000 mg/1500 mg/2000 mg/2500 mg or 3000 mg”. • Physical activity: • The patient was asked to continuously answer a question like the following: “I have been exercising the following number of minutes today: [number]”. • Weight/BMI: • The patient was asked to answer a question regarding his/her actual weight. • Blood glucose: • The patient was asked to register his/her measured blood glucose, when he/she had measured it. It was possible for the patient to change or update already registered answers. • HbA1c: • The patient was asked to register his/her HbA1c after it had been measured at a clinic. • A possible adverse event for Metformin: • “Have you experienced unexpected loss of weight, severe nausea or vomiting (malaise), uncontrolled sudden pain when breathing or abdominal? […] Extremely much versus Nothing at all” according to a VAS structure

[3] = Study 3: Lyrica combination product in generalized anxiety disorder (GAD), perceived symptoms, side effects, quality of life, adherence; conditions: Patient 3 (only PP); for Anxiety Daytime / Anxiety Evening/Night / Fatigue / Muscle tension Daytime / Muscle tension Evening/Night: average VAS 0-10; for Dizziness / Dry month / Nausea: frequency of Yes answers; for Quality of Life: average VAS 0-10, 10 = Extremely good
Procedure: Three patients participated in the study, where two of them were given the combination product, A+B, and the third was given the PP, A. All three patients were using an evaluation tool in order to capture the continuous data concerning their current health situation. Prior to entering the study none of the patients had used either the PP or the CPP.
Length of study: 2 months.
The two patients using the combination product were evaluated against the one patient using only the PP and being treated according to ordinary health care in Sweden.
Due to the specific and profound study objectives, detailed outcome and behavior during the study period from the patients were evaluated against each other. The measurements of the patient outcomes were evaluated for each patient in different time phases during the treatment period.
In order to measure the appropriate patient outcome, the patients were continuously followed-up. […] The used QFM for the patients in the intervention group, patient 1 and 2: • 1. Set of questions. • 2. Set of functions generating individual and patient specific feedback information. • 3. Feedback based upon the individual patient specific feedback information.
The used set of questions for the patient in the control group, patient 3: • 1. Set of questions similar to the intervention group in order to capture patient reported outcome data • 2. No set of functions. • 3. No feedback information or feedback.
The measured variables (see table 19) were symptom and side effect levels which were perceived estimates by each patient at every measure point. The change in levels of symptoms and side effects between different measured times were used for comparisons. Symptoms and side effects are many times closely related in GAD. In this study anxiety, fatigue, and muscle tension were defined as symptoms while dizziness, nausea, and dry mouth were considered as side effects. This study focused on the overall clinical effect and patient safety aspects therefore it was not crucial to the results if a measured variable could have been defined differently.

Structure (SMILES): CN[C@H]1CC[C@@H](c2ccc(Cl)c(Cl)c2)c2ccccc21 [Zoloft, Sertralin]
- HbA1c course [1]: remained stable or slightly increased
- weight gain [1]: 1-2%

Structure (SMILES): CN(C)C(=N)N=C(N)N [Metformin]
- increase of HbA1c [2]: 7%

Structure (SMILES): CC(C)C[C@H](CN)CC(=O)O [A, pregabalin]
- Anxiety Daytime ([3]; 1st phase): 3.5
- Anxiety Evening/Night ([3]; 1st phase): 2.8
- Fatigue ([3]; 1st phase): 5.4
- Muscle tension Daytime ([3]; 1st phase): 6.3
- Muscle tension Evening/Night ([3]; 1st phase): 3.9
- Dizziness ([3]; 1st phase): 13%
- Dry month ([3]; 1st phase): 0%
- Nausea ([3]; 1st phase): 38%
- Anxiety Daytime ([3]; 2nd phase): 3.0
- Anxiety Evening/Night ([3]; 2nd phase): 2.9
- Fatigue ([3]; 2nd phase): 5.0
- Muscle tension Daytime ([3]; 2nd phase): 7.8
- Muscle tension Evening/Night ([3]; 2nd phase): 7.4
- Dizziness ([3]; 2nd phase): 0%
- Dry month ([3]; 2nd phase): 0%
- Nausea ([3]; 2nd phase): 11%
- Anxiety Daytime, Change ([3]; 2nd vs 1st phase): −0.5
- Anxiety Evening/Night, Change ([3]; 2nd vs 1st phase): 0.1
- Dizziness, Change ([3]; 2nd vs 1st phase): −13 p.p.
- Dry month, Change ([3]; 2nd vs 1st phase): 0 p.p.
- Fatigue, Change ([3]; 2nd vs 1st phase): −0.4
- Muscle tension Daytime, Change ([3]; 2nd vs 1st phase): 1.5
- Muscle tension Evening/Night, Change ([3]; 2nd vs 1st phase): 5.5
- Nausea, Change ([3]; 2nd vs 1st phase): −27 p.p.
- Anxiety Daytime ([3]; 3rd phase): 1.9
- Anxiety Evening/Night ([3]; 3rd phase): 1.8
- Fatigue ([3]; 3rd phase): 5.1
- Muscle tension Daytime ([3]; 3rd phase): 7.1
- Muscle tension Evening/Night ([3]; 3rd phase): 7.2
- Dizziness ([3]; 3rd phase): 0%
- Dry month ([3]; 3rd phase): 0%
- Nausea ([3]; 3rd phase): 0%
- Anxiety Daytime, Change ([3]; 3rd vs 2nd phase): −1.1
- Anxiety Evening/Night, Change ([3]; 3rd vs 2nd phase): −1.1
- Dizziness, Change ([3]; 3rd vs 2nd phase): 0 p.p.
- Dry month, Change ([3]; 3rd vs 2nd phase): 0 p.p.
- Fatigue, Change ([3]; 3rd vs 2nd phase): 0.1
- Muscle tension Daytime, Change ([3]; 3rd vs 2nd phase): −0.7
- Muscle tension Evening/Night, Change ([3]; 3rd vs 2nd phase): −0.3
- Nausea, Change ([3]; 3rd vs 2nd phase): −11 p.p.
- Anxiety Daytime ([3]; End period): 2.0
- Anxiety Evening/Night ([3]; End period): 2.5
- Fatigue ([3]; End period): 4.8
- Muscle tension Daytime ([3]; End period): 7.3
- Muscle tension Evening/Night ([3]; End period): 7.4
- Quality of Life ([3]; End period): 2.5
- Dizziness ([3]; End period): 0%
- Dry month ([3]; End period): 0%
- Nausea ([3]; End period): 0%
- Anxiety Daytime, Change ([3]; End vs Start period): −1.8
- Anxiety Evening/Night, Change ([3]; End vs Start period): 0.1
- Dizziness, Change ([3]; End vs Start period): −13 p.p.
- Dry month, Change ([3]; End vs Start period): 0 p.p.
- Fatigue, Change ([3]; End vs Start period): −0.8
- Muscle tension Daytime, Change ([3]; End vs Start period): 1.4
- Muscle tension Evening/Night, Change ([3]; End vs Start period): 4.0
- Nausea, Change ([3]; End vs Start period): −38 p.p.
- Quality of Life, Change ([3]; End vs Start period): 0.5
- Anxiety Daytime ([3]; Start period): 3.8
- Anxiety Evening/Night ([3]; Start period): 2.4
- Fatigue ([3]; Start period): 5.6
- Muscle tension Daytime ([3]; Start period): 5.9
- Muscle tension Evening/Night ([3]; Start period): 3.4
- Quality of Life ([3]; Start period): 2.0
- Dizziness ([3]; Start period): 13%
- Dry month ([3]; Start period): 0%
- Nausea ([3]; Start period): 38%

Source: patent US20150193597A1, “PHARMACEUTICAL PRODUCT AND COMMUNICATION TOOL” (priority 2012, published 2015)
